The text below walks through data of paper PMC6429262, “Design and Synthesis of Novel Anti-Proliferative Emodin Derivatives and Studies on their Cell Cycle Arrest, Apoptosis Pathway and Migration” (Molecules, 2019).

In general, IC50 refers to the midpoint of a concentration-inhibition curve.

Experiment [1] concerns HepG2 cells. Nature of the experiment: CellTiter-Glo Luminescent Cell Viability Assay, HepG2. In kind it is cell-based, human. Conditions: for IC50: 48 h, mean of three independent experiments. Background: Cellular ATP, detected with luciferase, serves as a proxy for viable cell number.
Experiment [2] has as its system MCF-7 cells. As to the kind of experiment: CellTiter-Glo Luminescent Cell Viability Assay, MCF-7. The experiment is classed as cell-based, human. Conditions: for IC50: MCF-7 cells, 48 h, mean of three independent experiments.
Experiment [3] deals with L02 cells. Nature of the experiment: Cytotoxic activity against human normal liver cells (L02). The experiment is classed as cell-based.
For experiment [4], the system named is Bax. As to the kind of experiment: Western blot, Bax. In kind it is cell-based, human. Conditions: 48 h. How it is done:
Total cell lysates from cultured HepG2 cells treated with different concentrations of compound 7a for 48 h were obtained by lysing the cells in ice-cold RIPA buffer (1 PBS, 1% NP-40, 0.5% sodium deoxycholate and 0.1% SDS) containing […] PMSF, 5 mg/mL aprotinin, 5 mg/mL leupeptin, 5 mg/mL pepstatin and […] NaF. After centrifugation at 12,000 rpm for 10 min, the protein in the supernatant was quantified by the Bradford method (BIO-RAD, Hercules, CA, USA) using a Multimode Varioscan instrument (Thermo Fischer Scientific, Waltham, MA, USA). Twenty micrograms of protein per lane was applied in 12% SDS polyacrylamide gel. After electrophoresis, the protein was transferred to a polyvinylidine difluoride membrane (Amersham Biosciences, Marlborough, MA, USA). The membrane was blocked at room temperature for 2 h in TBST containing 5% blocking powder (Santa Cruz, Dallas, TX, USA). The membrane was washed with TBST for 5 min, and the primary antibody was added and incubated at 4 °C overnight (O/N). Bax (5023, CST, Danvers, MA, USA), Bcl-2 (15071, CST), cytochrome c (4280, CST), procaspase-9 (AB138412, Abcam, Cambridge, MA, USA), procaspase-3 (AB32150, Abcam), caspase-3 (66470-2-lg, Proteintech Group, Rosemont, IL, USA) and GAPDH (AB8245, Abcam) antibodies were employed. After three TBST washes, the membrane was incubated with the corresponding horseradish peroxidase-labeled secondary antibody (1:5000) (Santa Cruz) at room temperature for 2 h. Membranes were washed with TBST for 15 min five times and the protein blots were visualized with chemiluminescence reagent (Thermo Fischer Scientific Ltd.). The X-ray films were developed with a developer and fixed with fixer solution. The grey levels were analyzed using ImageQuant LAS 4000 system (GE, Marlborough, MA, USA).
A general note: In western blotting, separated proteins are transferred to a membrane and probed.

Experiment [5] has as its system HepG2 cells. Nature of the experiment: Wound healing assay (cell migration). The experiment is classed as cell-based. The following applies: Homo sapiens, 48 h, read-out: Inhibition (%) of migration (cell inhibitory rate). On the procedure:
To evaluate the effect of compound 7a on cancer migration, a wound healing assay was conducted to determine whether compound 7a could prevent HepG2 cell migration. After culturing HepG2 cells for 48 h in the presence and absence of compound 7a at 0, 0.25, 0.5, and 1 μM, a pipette tip was streaked through the cell culture, resulting in a cell deficient space. The territory recovered by the HepG2 cells was used to observe the migration inhibition capability of compound 7a.
HepG2 cells were grown in DMEM medium containing growth factors at a cell density of 1 × 10^5 cells/mL for 24 h. A disposable […] plastic pipette tip was used to scratch the monolayer of cells in a streaking motion. Compounds were added to the streaked cell culture at the indicated concentrations. The streaked cells were then cultured in serum-free medium for an additional 48 h and photographed. To quantify the experimental results, the % cell inhibitory rate was calculated by the equation: cell inhibitory rate (%) = (1 − Ddrug/Dcontrol) × 100%, where Ddrug is the mean distance of cell migration in drug group and Dcontrol is the mean distance of cell migration in control group. Pictures of the initial wounded monolayers were compared with the corresponding pictures of cells at the end of the incubation, and data were presented as mean ± SD from three independent experiments.

Consider `Cc1cc(O)c2c(c1)C(=O)c1cc(OCCCOC(=O)[C@@H](C)N)cc(O)c1C2=O.O=C(O)C(F)(F)F` [Compound 7a, (R)-1-(3-(4,5-Dihydroxy-7-methyl-9,10-dioxo-9,10-dihydroanthracen-2-yloxy)propoxy)-1-oxopropan-2-aminium 2,2,2-trifluoroacetate], for which the IC50 in experiment [1] (HepG2 cells) was found to be 6.47 ± 0.21 µM; in experiment [1] (Homo sapiens, HepG2, 48 h, HepG2 cells), 4.95 ± 0.14 µM; in experiment [2] (Homo sapiens, MCF7, 48 h) it was 5.92 ± 0.36 µM; in experiment [2], 6.47 ± 0.18 µM; in experiment [3] (Homo sapiens, L02, human normal liver L02 cells), 14 ± 0.27 µM; in experiment [3] (human normal liver L02 cells), 18.5 ± 0.19 µM. The “enhancement of anti-proliferative activity compared to emodin” value in experiment [1] (HepG2 cells, IC50 ratio to parent compound emodin) is recorded as 8.8 fold. In experiment [1] (IC50 on normal cells (L02)/IC50 on cancer cells (HepG2)), the “Selectivity Index HepG2” value came out at 2.82. Also, the “Selectivity Index MCF-7” value in experiment [2] (IC50 on normal cells (L02)/IC50 on cancer cells (MCF-7)) is 2.36. The “Relative expression level, Bax” value in experiment [4] (HepG2, 2.5 μM) is given as 1.180 ± 0.046; in experiment [4] (HepG2, 5 μM), 1.347 ± 0.081; in experiment [4] (HepG2, 10 μM) it was 1.593 ± 0.112. Further, the inhibition at 0.25 µM in experiment [5] (HepG2, 0.25 μM) turned out to be 12.6 ± 1.69%. Also, the inhibition at 0.5 µM in experiment [5] (HepG2, 0.5 μM) is 23.7 ± 0.59%. Moreover, the inhibition at 1 µM in experiment [5] (HepG2, 1 μM) was found to be 40.2 ± 2.92%.
